How the values were obtained:
[1] = parameters: method as in Abushammala, 2021; conditions: ref Abushammala, 2021; cited from earlier work
[2] = Pharmacokinetics of Tac in rats alone or co-administered with deoxyschizandrin or Wuzhi capsule (UHPLC-MS/MS of plasma); type: in vivo, SD rats; conditions: for AUMC0→t / AUC(0-inf) / AUC(0-t) / Cmax / MRT / Tmax / half-life: rat plasma; for AUC(0-inf) / AUC(0-t) / Cmax / MRT / Tmax / half-life: male, SD, rat, plasma
Description: The mobile phase A was acetonitrile, and mobile phase B was 0.1% formic acid in water, and the initial mobile phase of gradient elution program was consisted of 60% phase A and 40% phase B. The sample injection volume was set at 10 μL. Gradient elution program was supplied in Supplementary Table S1.
The mass spectrometry detection was achieved on an Agilent 6460A mass spectrometer with ESI source. […] The settings of the mass spectrometer source were as follows: capillary voltage 4,000 V, sheath gas flow 12 L/min, temperature 400°C, dry gas (nitrogen) flow 10 L/min and temperature 350°C, nebulizer pressure 45 psi. All analytes were detected in positive ionization mode. Collision gas (high purity liquid nitrogen) was set at 0.25 MPa. The structures of both two analytes and IS are display in Figure 1.
The pretreatment was performed for the plasma sample by one-step protein precipitation, Briefly, 100 μL sample was transferred into a 1.5 mL EP tube prior to adding with 300 μL methanol(containing 200 ng/mL IS). The mixture was vortex-mixed for 30 s before centrifugation at 17,400 g for 10 min at room temperature, and 100 μL of the supernatant was diluted with 100 μL of acetonitrile (v/v, 1:1) Then, a 10 μL aliquoted of diluted solution was injected into the UHPLC-MS/MS system for analysis.
The protocol of the animal study was approved by the Experimental Animal Ethics Committee of the Shanghai University of Traditional Chinese Medicine. Specific Pathogen Free (SPF) grade SD rats, male, 8 weeks old, 200–250 g, were obtained from the animal experiment center of Shanghai University of Traditional Chinese Medicine. After passing quarantine, the rats were adaptive fed for 2 days. Rats were fasted for 12–14 h, followed by the initiation of pharmacokinetic study of Tac and deoxyschizandrin. This animal study was carried out in accordance with the National Institutes of Health Guide for the Care and Use of Laboratory animals.
In this study, 42 rats were divided equally into seven groups of six rats each, numbered NG2201-NG2207. Among them, the NG2201 and NG2202 group was dosed with 150 mg/kg deoxyschizandrin alone to study the PK of deoxyschizandrin in rats after single and multiple doses; the NG2203 group was administrate dosed with 1.0 mg/kg of Tac; the NG2204-NG2206 groups were dosed with 75, 150, and 300 mg/kg of deoxyschizandrin plus 1.0 mg/kg Tac, respectively, and the NG2207 group was dosed with the Wuzhi capsule (approximately equal to 150 mg/kg of deoxyschizandrin) plus 1.0 mg/kg of Tac ([Teng et al., 2022]). The detailed dosing regimen is shown in Table 2, and all dose in this experiment were calculated according to clinical dose. Blood samples (approximately 300 μL for each) for PK analysis were collected into lithium–heparin tubes. The plasma sampling schedules are outlined below: Blood samples were drawn pre-dose, at 5, 10, 20 and 30 min, and at 1, 1.5, 2, 4, 8 and 24 h after drug administration. The blood samples were centrifuged at 5,000 g for 15 min at 4°C to collect plasma samples, which were placed −80 refrigerator.
The rat plasma collected from each group was pretreated according to the method in section 2.5, and exposure levels of Tac and deoxyschizandrin were determined using the above established UHPLC-MS/MS method and the PKs were calculated using DAS software using non-compartment model (version 2.0, China Pharmacological Society). The data were presented as mean ± SD.

[3] = Stability of the two analytes in rat plasma under different storage conditions; type: in vitro ADME; conditions: n=5
Description: To prepare the stock solution, approximately 2.00 mg of Tac, deoxyschizandrin and IS were accurately weighed and dissolved in methanol, respectively. The stock solutions of Tac and deoxyschizandrin with a final concentration of 1.00 mg/mL was obtained, and the IS stock solution was diluted to 100.00 ng/mL using methanol before use. The stock solutions were aliquoted and stored at −80°C. Combined working solutions were prepared by diluting the stock solution using 10% aqueous methanol at the following concentrations: 5.00, 10.00, 20.00, 50.00, 100.00, 200.00, 500.00, 1,000.00, and 2,000.00 ng/mL. Blank rat plasma was used to prepare the calibration standards. Quality-control (QC) samples of two analytes were prepared separately in the same manner at three concentrations, namely, 10 (low concentration), 100 (middle), 1,000 ng/mL (high), and all QC samples were stored at −80°C.
The methodology validation was completed according to FDA guidelines and Chinese Pharmacopoeia (2015 edition), and the linearity, inter- and intra-precision and accuracy, matrix effect and extraction recovery, stability and specificity of this method were validated according to previous study ([Lu et al., 2022]; [Wang et al., 2022]; [Shu et al., 2016]).

[4] = 1 mg/kg, NG2203: 1.0 mg/kg of Tac alone
[5] = 1 mg/kg, NG2204: 1.0 mg/kg of Tac plus 75 mg/kg deoxyschizandrin
[6] = 1 mg/kg, NG2205: 1.0 mg/kg of Tac plus 150 mg/kg deoxyschizandrin
[7] = 1 mg/kg, NG2206: 1.0 mg/kg of Tac plus 300 mg/kg deoxyschizandrin
[8] = 1 mg/kg, NG2207: 1.0 mg/kg of Tac plus Wuzhi capsule (equivalent to 150 mg/kg deoxyschizandrin)
[9] = 1 mg/kg, Tac 1 mg/kg alone (NG2203)
[10] = 1.0 mg/kg of Tac plus Wuzhi capsule (equivalent to 150 mg/kg deoxyschizandrin)

Structure (SMILES): C=CC[C@@H]1/C=C(\C)C[C@H](C)C[C@H](OC)[C@H]2O[C@@](O)(C(=O)C(=O)N3CCCC[C@H]3C(=O)O[C@H](/C(C)=C/[C@@H]3CC[C@@H](O)[C@H](OC)C3)[C@H](C)[C@@H](O)CC1=O)[C@H](C)C[C@@H]2OC [Tac, Tacrolimus]
- average bioavailability [1]: 25%
- increase of C max of Tac after co-administered deoxyschizandrin ([2]; 75, 150, 300 mg/kg deoxyschizandrin plus 1 mg/kg Tac vs Tac alone, rats): 3-4 fold
- AUMC0→t ([2]; NG2203: 1.0 mg/kg of Tac alone): 613.05 ± 182.15 ng. h2/mL
- AUMC0→t ([2]; NG2204: 1.0 mg/kg of Tac plus 75 mg/kg deoxyschizandrin): 2107.22 ± 701.25 ng. h2/mL
- AUMC0→t ([2]; NG2205: 1.0 mg/kg of Tac plus 150 mg/kg deoxyschizandrin): 1915.12 ± 621.91 ng. h2/mL
- AUMC0→t ([2]; NG2206: 1.0 mg/kg of Tac plus 300 mg/kg deoxyschizandrin): 3,315.05 ± 1,100.65 ng. h2/mL
- AUMC0→t ([2]; NG2207: 1.0 mg/kg of Tac plus Wuzhi capsule (equivalent to 150 mg/kg deoxyschizandrin)): 2395.69 ± 1,225.18 ng. h2/mL
- mean C max lower with Wuzhi capsule compared with deoxyschizandrin ([2]; Tac 1.0 mg/kg plus Wuzhi capsule vs plus 150 mg/kg deoxyschizandrin, rats): 11.23 ng/mL
- AUC(0-inf) [2, 4]: 105 ± 31.3 ng·h/mL
- AUC(0-t) [2, 4]: 95.1 ± 32.6 ng·h/mL
- Cmax [2, 4]: 14.3 ± 4.73 ng/mL
- MRT [2, 4]: 6.54 ± 0.55 h
- Tmax [2, 4]: 1.33 ± 0.52 h
- half-life [2, 4]: 7.3 ± 3.06 h
- AUC(0-inf) [2, 5]: 351 ± 117 ng·h/mL
- AUC(0-t) [2, 5]: 314 ± 99.4 ng·h/mL
- Cmax [2, 5]: 43.2 ± 13.7 ng/mL
- MRT [2, 5]: 6.69 ± 0.25 h
- Tmax [2, 5]: 1.17 ± 0.41 h
- half-life [2, 5]: 7.31 ± 1.04 h
- AUC(0-inf) [2, 6]: 331 ± 98 ng·h/mL
- AUC(0-t) [2, 6]: 315 ± 92.2 ng·h/mL
- Cmax [2, 6]: 54.5 ± 14.4 ng/mL
- MRT [2, 6]: 6.02 ± 0.53 h
- Tmax [2, 6]: 1.08 ± 0.49 h
- half-life [2, 6]: 5.04 ± 1.95 h
- AUC(0-inf) [2, 7]: 534 ± 176 ng·h/mL
- AUC(0-t) [2, 7]: 486 ± 149 ng·h/mL
- Cmax [2, 7]: 67.4 ± 18.6 ng/mL
- MRT [2, 7]: 6.76 ± 0.31 h
- Tmax [2, 7]: 0.75 ± 0.27 h
- half-life [2, 7]: 6.59 ± 1.62 h
- AUC(0-inf) [2, 8]: 388 ± 217 ng·h/mL
- AUC(0-t) [2, 8]: 340 ± 193 ng·h/mL
- Cmax [2, 8]: 43.2 ± 21.9 ng/mL
- MRT [2, 8]: 7.23 ± 1.04 h
- Tmax [2, 8]: 1.5 ± 0.55 h
- half-life [2, 8]: 8.27 ± 2.2 h
- AUC(0-inf) [2, 9]: 105 ± 31.3 ng·h/mL
- AUC(0-t) [2, 9]: 95.1 ± 32.6 ng·h/mL
- AUC(0-t) ([2]; 1 mg/kg, Tac alone (NG2203)): 95.1 ± 32.6 ng·h/mL
- AUC(0-inf) [2, 10]: 388 ± 217 ng·h/mL
- AUC(0-t) [2, 10]: 340 ± 193 ng·h/mL
- AUC(0-t) ([2]; Tac after co-administration of deoxyschizandrin (NG2205)): 315 ± 92.2 ng·h/mL
- AUC(0-t) ([2]; Tac co-administrated with deoxyschizandrin (NG2205)): 315 ± 92.2 ng·h/mL
- Auto-sampler stability (24h, 4℃) Mean ± SD ([3]; Nominal Conc. 10 ng/mL): 10.23±0.51
- Bench-top stability (8h, RT) Mean ± SD ([3]; Nominal Conc. 10 ng/mL): 10.39±0.41
- Frozen-thaw stability (3 times) Mean ± SD ([3]; Nominal Conc. 10 ng/mL): 10.55±0.54
- Long-term stability (1 month, -80℃) Mean ± SD ([3]; Nominal Conc. 10 ng/mL): 10.35±0.14
- Auto-sampler stability (24h, 4℃) Mean ± SD ([3]; Nominal Conc. 100 ng/mL): 103.90±2.74
- Bench-top stability (8h, RT) Mean ± SD ([3]; Nominal Conc. 100 ng/mL): 102.33±1.53
- Frozen-thaw stability (3 times) Mean ± SD ([3]; Nominal Conc. 100 ng/mL): 110.23±5.21
- Long-term stability (1 month, -80℃) Mean ± SD ([3]; Nominal Conc. 100 ng/mL): 101.09±1.01
- Auto-sampler stability (24h, 4℃) Mean ± SD ([3]; Nominal Conc. 1000 ng/mL): 1010.05±13.85
- Bench-top stability (8h, RT) Mean ± SD ([3]; Nominal Conc. 1000 ng/mL): 1009.93±11.80
- Frozen-thaw stability (3 times) Mean ± SD ([3]; Nominal Conc. 1000 ng/mL): 1025.45±12.50
- Long-term stability (1 month, -80℃) Mean ± SD ([3]; Nominal Conc. 1000 ng/mL): 1008.72±11.30
